Results taken from patent US10155948B2, “Pharmaceutical composition for preventing or treating diabetic complications and screening method for preventive or therapeutic agent for diabetic complications” (KANGWON NATIONAL UNIVERSITY UNIVERSITY-INDUSTRY COOPERATION …, priority 2016, dated 2018).

Columns and labels:
VE-cadherin = experiment: Visualization of VE-cadherin (adherens junction disruption) in HRECs; assay type: cell-based, human; conditions: summary statement, conditions not given
Method: (§1) Actin filaments and VE-cadherin were visualized as previously described. For visualization of actin filaments, cells were treated with 10 ng/ml VEGF for 1 hr at 37° C., fixed with 3.7% formaldehyde, and permeabilized with 0.2% Triton X-100. […] For visualization of VE-cadherin, cells were preincubated with the TGase2 inhibitors for 30 min and treated with 10 ng/ml VEGF for 90 min at 37° C. Following fixation and permeabilization, cells were incubated overnight with a monoclonal anti-VE-cadherin antibody (1:200, Santa Cruz Biotechnology) at 4° C. Cells were then probed with an FITC-conjugated goat anti-mouse antibody (1:200, Sigma) and VE-cadherin was visualized using confocal microscopy. Adherens junctions are represented by histograms of VE-cadherin as indicated by dotted lines and were quantitatively analyzed using peak fluorescence intensities of the histograms at the single-cell level for 10 randomly selected cells per experiment.
(§2) (A-C) HRECs were preincubated with 50 μM cystamine (Cys) and 20 μM MDC for 30 min and treated with 10 ng/ml VEGF. Stress fibers and VE-cadherin were stained and visualized by confocal microscopy as described in Research Design and Methods (n=3) ((A) Representative images of stress fibers. Scale Bar, 30 μm. (B) Representative images of VE-cadherin. Scale Bar, 10 μm). Adherens junctions are represented by histograms of VE-cadherin as indicated by dotted lines. (C) Adherens junctions were quantitatively analyzed using the peak fluorescence intensities of the histograms at the single-cell level. The results are expressed as mean±SD from three independent trials. (D) In-vitro endothelial cell monolayer permeability assay. HRECs on inserts of Transwell® Permeable Supports were incubated with 50 μM cystamine and 20 μM MDC for 30 min and treated with 10 ng/mL VEGF for 90 min. The amount of FITC-dextran that diffused to the lower chamber was measured by a microplate spectrofluorometer (n=3) (**p<0.01).
(§3) HRECs were transfected with 100 nM human TGase2-specific siRNA (TGase2 siRNA) or 100 nM control (Ctrl) siRNA. Endothelial cells were treated with 10 ng/ml VEGF and subjected to the confocal microscopic visualization of stress fibers (A) and VE-cadherin (B), as described in Research Design and Methods (n=3). (A) TGase2 siRNA inhibition of VEGF-induced formation of stress fibers. Scale bar, 30 μm. (B) Representative images of VE-cadherin and adherens junctions represented by VE-cadherin histograms. Scale bar, 10 μm. (C) Adherens junctions were quantitatively analyzed using peak fluorescence intensities of the histograms at the single-cell level. Results are expressed as mean±SD from three independent experiments (***p<0.001).

TGase2 [1] = target: T1, TGase2 (Mus musculus, UniProt P21981); experiment: In-vivo TGase activity in retina of streptozotocin-diabetic mice; conditions: diabetic mice, intravitreal 2 μl: 50 mM cystamine, 20 mM MDC, 1 μM C-peptide, 2 μM Trolox, 500 mM NAC; after 24 hrs; n=8
T1 construct: from tissue; host or cells: retina of streptozotocin-diabetic C57BL/6 mice
T1 sequence (P21981 1-686): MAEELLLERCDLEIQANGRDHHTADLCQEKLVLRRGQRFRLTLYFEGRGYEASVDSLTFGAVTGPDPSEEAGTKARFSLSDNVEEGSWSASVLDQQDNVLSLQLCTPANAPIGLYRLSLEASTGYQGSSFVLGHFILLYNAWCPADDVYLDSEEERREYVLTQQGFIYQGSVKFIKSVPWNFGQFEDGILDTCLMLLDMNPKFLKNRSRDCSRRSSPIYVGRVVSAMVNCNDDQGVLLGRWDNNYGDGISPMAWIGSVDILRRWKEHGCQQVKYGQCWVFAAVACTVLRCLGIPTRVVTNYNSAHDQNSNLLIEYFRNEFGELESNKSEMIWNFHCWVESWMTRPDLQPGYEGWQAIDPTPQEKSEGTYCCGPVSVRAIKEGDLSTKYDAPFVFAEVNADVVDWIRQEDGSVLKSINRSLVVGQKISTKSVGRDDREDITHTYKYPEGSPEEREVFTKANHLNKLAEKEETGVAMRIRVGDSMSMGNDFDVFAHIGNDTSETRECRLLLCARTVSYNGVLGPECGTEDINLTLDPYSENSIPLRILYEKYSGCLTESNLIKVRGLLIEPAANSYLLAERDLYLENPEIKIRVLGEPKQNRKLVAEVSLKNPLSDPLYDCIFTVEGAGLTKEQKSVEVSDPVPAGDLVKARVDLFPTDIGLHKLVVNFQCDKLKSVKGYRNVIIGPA
Method: Two weeks after streptozotocin injection, diabetic mice were intravitreally injected with 2 μl of TGase inhibitors (50 mM cystamine or 20 mM MDC), 1 μM C-peptide (American Peptide Company, Sunnyvale, Calif.), ROS scavengers (2 μM Trolox or 500 mM NAC), or 65 μM mouse TG2-specific siRNA (Dharmacon, Lafayette, Colo.) into one eye and an equal volume of PBS or mouse control siRNA (Dharmacon, Lafayette, Colo.) into the contralateral eye. Non-diabetic mice were also intravitreally injected with 2 μl of PBS or mouse control siRNA into the eyes. After 24 hrs for inhibitors or C-peptide or 48 hrs for mouse TGase2 siRNA, mice were subjected to measurement of in-vivo TGase activity and vascular leakage from the retina.
In vivo Tgase transamidating activity was determined in mouse retina using confocal microscopy (FIG. 5A). 24 hrs after intravitreal injection of TGase2 inhibitors and C-peptide or 48 h after the injection of mouse TGase2-specific siRNA, mice were deeply anaesthetized using 2.5% avertin and 48 μl of 100 mM BAPA was injected into the left ventricle. BAPA was allowed to circulate for 10 min and mice were sacrificed by cervical dislocation. Eyes were then enucleated and immediately fixed with 4% paraformaldehyde for 45 min. Retinas were dissected in the Maltese cross-configuration and permeabilized with 0.2% Triton X-100 in PBS for 30 min at RT. After incubation with the blocking solution for 30 min, retinas were treated with FITC-conjugated streptavidin (1:200, v/v) in the blocking solution for 1 hr at RT. The superficial vessels of stained retinas (n=8 per group) were observed using confocal microscopy and fluorescence intensities were analyzed using Fluoview software (FV-300). In-vivo TGase activities were quantitatively determined using fluorescence intensities in the retinas of normal and diabetic mice.
Six-week-old male C57BL/6 mice were obtained from KOATECH (Pyeongtaek, Korea). TGase2^−/− mice (C57BL/6) were prepared by disrupting exons 5 and 6 of TGase2 by homologous recombination, as previously described. Diabetic mice were generated by a single intraperitoneal injection of streptozotocin (150 mg/kg body weight, Sigma) freshly prepared in 100 mM citrate buffer (pH 4.5) as previously described. Mice with non-fasting blood glucose levels greater than 19 mM, polyuria and glucosuria were considered diabetic. Experiments were performed in strict accordance with the guidelines of the Institutional Animal Care and Use Ethics Committee of Kangwon National University.
To validate the in-vitro findings, the present inventors further investigated the role of TGase2 in hyperglycemia-induced vascular leakage in the retina of diabetic mice. For this study, the present inventors designed an in-vivo TGase activity assay using confocal microscopy in mouse retina (FIG. 5A). In this assay, BAPA, which is a TGase2 pseudo substrate, was systemically delivered into the blood circulatory system by injection into the left ventricles of mice, and biotinylated proteins in the retinas were probed with FITC-conjugated streptavidin.
(A) A schematic diagram for determining TGase2 activity in mouse retina. (B,C) Streptozotocin-induced diabetic mice were intravitreally injected with 2 μl cystamine (diabetic+Cys), MDC (diabetic+MDC), C-peptide (diabetic+C-pep), Trolox (diabetic+Trolox) or NAC (diabetic+NAC) into one eye and an equal volume of PBS into the contralateral eye (diabetic). Non-diabetic mice were also intravitreally injected with 2 μl PBS into both eyes (normal). TGase2 activities in retinas were visualized by confocal microscopy and quantitatively determined as described in Research Design and Methods (n=8 per group). (B) Representative TGase activity images in the retinas. […] Scale bar, […]. (C) In-vivo TGase activities were quantified by measuring the fluorescence intensity in retinas (***p<0.001). […]

HRECs [2] = experiment: Visualization of actin filaments (stress fiber formation) in HRECs; assay type: cell-based, human; conditions: summary statement, conditions not given
Method: as §1, §2, §3

HRECs [3] = experiment: Intracellular Ca2+ levels (Fluo4-AM, confocal) in HRECs; assay type: cell-based, human; conditions: 10 ng/ml VEGF, inhibitors 30 min
Method: Cells on coverslips were co-incubated with 2 μM Fluo4-AM and various inhibitors for 30 min at 37° C. Coverslips were scanned every 10 sec in the presence of 10 ng/ml VEGF using a confocal microscope (FV-300, Olympus Tokyo, Japan). Single-cell fluorescence intensities of peaks were determined for 10 randomly selected cells per trial.

HRECs [4] = experiment: Intracellular ROS generation (H2DCFDA, confocal) in HRECs; assay type: cell-based, human; conditions: 10 ng/ml VEGF, inhibitors pretreated 30 min
Method: Intracellular ROS generation was determined using 2′,7′-dichlorodihydrofluorescein diacetate (H2DCFDA, Molecular Probes, Eugene, Oreg.) staining as previously described. Cells were pretreated with inhibitors for 30 min and co-incubated with 10 ng/ml of VEGF and 10 μM H2DCFDA in low-serum media (phenol red-free) for 10 min. Labeled cells were immediately analyzed using confocal microscopy (Fluoview-300, Olympus). Single-cell fluorescence intensities were determined for 10 randomly selected cells per test. Intracellular ROS levels were determined by comparing average fluorescence intensities of treated cells with those of control cells (expressed as multiples thereof). […] Intracellular Ca^2+ and ROS levels were determined by confocal microscopy as described in Research Design and Methods. Results are expressed as mean±SD from three independent trials (***p<0.001).

TGase2 [5] = target: T2, TGase2 (Homo sapiens, UniProt P21980); experiment: In-situ TGase activity by confocal microscopy in VEGF-treated HRECs; assay type: cell-based; design: endogenous in cells; host or cells: human retinal endothelial cells (HRECs); conditions: 10 ng/ml VEGF 2 hrs, 50 μM cystamine, 20 μM MDC, 5 μM BAPTA-AM, 1 mM NAC, 0.5 μM Trolox, p<0.001
T2 sequence (P21980 1-687): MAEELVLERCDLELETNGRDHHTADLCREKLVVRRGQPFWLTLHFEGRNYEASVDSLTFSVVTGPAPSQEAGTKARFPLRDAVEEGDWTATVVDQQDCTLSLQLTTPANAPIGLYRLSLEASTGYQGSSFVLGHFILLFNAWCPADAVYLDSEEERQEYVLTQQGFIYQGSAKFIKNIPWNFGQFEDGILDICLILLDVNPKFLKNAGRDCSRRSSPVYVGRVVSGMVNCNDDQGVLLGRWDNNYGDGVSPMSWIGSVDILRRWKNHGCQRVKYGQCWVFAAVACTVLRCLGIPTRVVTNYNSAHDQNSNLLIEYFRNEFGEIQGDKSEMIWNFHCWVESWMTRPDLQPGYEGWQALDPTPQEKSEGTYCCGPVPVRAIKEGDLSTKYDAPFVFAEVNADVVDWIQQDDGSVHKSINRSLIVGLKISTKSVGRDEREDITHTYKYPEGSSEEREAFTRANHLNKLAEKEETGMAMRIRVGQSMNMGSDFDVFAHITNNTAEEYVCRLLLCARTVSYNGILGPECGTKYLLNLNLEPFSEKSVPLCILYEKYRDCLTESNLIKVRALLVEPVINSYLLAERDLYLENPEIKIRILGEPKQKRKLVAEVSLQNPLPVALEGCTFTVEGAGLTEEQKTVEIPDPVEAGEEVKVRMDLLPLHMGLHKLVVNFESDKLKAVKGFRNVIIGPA
Method: HUVEC isolation was done by our own supply and Human retinal endothelial cells (HRECs) were purchased from the Applied Cell Biology Research Institute (Cell Systems, Kirkland, Wash.). Both respectively were grown on 2% gelatin-coated plates in a M199 medium supplemented with 20% fetal bovine serum (FBS), 3 ng/ml basic fibroblastic growth factor, 5 units/ml heparin, 100 units/ml penicillin, and 100 μg/ml streptomycin. For experiments, cells were incubated for 6 hrs in a low-serum medium supplemented with 1% FBS and antibiotics.
In-situ Tgase transamidating activity was determined via confocal microscopic assay according to a previously known procedure. In brief, cells were incubated with 1 mM 5-(biotinamido)pentylamine (BAPA) for 1 hr at 37° C., fixed with 3.7% formaldehyde in PBS for 30 min, and permeabilized with 0.2% Triton X-100 in PBS for 30 min. After incubation with a blocking solution of 2% BSA in 20 mM Tris (pH 7.6), 138 mM NaCl, and 0.1% Tween 20 for 30 min, cells were treated with Cy3-conjugated streptavidin (1:200, v/v) in the blocking solution for 1 hr. Single-cell fluorescence intensities of stained cells were determined using confocal microscopy for 10 randomly selected cells per test. TGase activities were determined by comparing average fluorescence intensities of treated cells with those of control cells (expressed as multiples thereof).
HRECs were transfected with human TGase2-specific siRNA as described previously. In brief, cells were transfected with various concentrations of human TGase2-siRNA or 100 nM control siRNA (Dharmacon, Lafayette, Colo.) using siLentFect lipid reagent (Bio-Rad Laboratories, Hercules, Calif.) according to the manufacturer's instructions. Six hours after transfection with the indicated concentrations, the medium was replaced with a fresh culture medium and the transfected cells were further incubated for 24 hrs.
A detailed description of FIGS. 1A-1F are given below. […] (A, B) HRECs were incubated with 10 ng/ml VEGF for the indicated times (A) or for 2 hrs (B) in the presence of TGase inhibitors (50 μM cystamine and 20 μM MDC), 5 μM Ca^2+ chelator BAPTA-AM, or ROS scavengers (1 mM NAC or 0.5 μM Trolox). In-situ TGase activity was determined by confocal microscopy as described in Research Design and Methods (A: Time course changes in VEGF-induced transglutaminase activation; and B: Effects of various inhibitors on VEGF-induced transglutaminase activation). (C,D) HRECs were transfected with the indicated concentrations (C) or 100 nM (D) of human TGase2-specific siRNA (TGase2 siRNA) or 100 nM control (Ctrl) siRNA. Endothelial cells were treated with 10 ng/ml VEGF and subjected to confocal microscopic determination of in-situ TGase activity (C: Dose-dependent inhibition of TGase2 expression by TGase2 siRNA, TGase2 expression being analyzed by Western blot; and D: TGase2 siRNA prevention of VEGF-induced transglutaminase activation). FIGS. 1E and 1F show the effects of various inhibitors on the elevation of intracellular Ca^2+ (E) and ROS (F). Intracellular Ca^2+ and ROS levels were determined by confocal microscopy as described in Research Design and Methods. Results are expressed as mean±SD from three independent trials (***p<0.001).

Compound	VEGF-induced VE-cadherin disruption (VE-cadherin)	hyperglycemia-induced TGase2 activation in diabetic retina (in-vivo TGase activity) (TGase2 [1])	VEGF-induced stress fiber formation (HRECs [2])	VEGF-elevated intracellular Ca2+ levels (HRECs [3])	VEGF-induced intracellular ROS generation (HRECs [4])	VEGF-induced TGase activation (in-situ TGase activity) (TGase2 [5])
C-peptide: 31-amino acid peptide, EAEDLQVGQVELGGGPGAGSLQPLALEGSLQ (SEQ ID NO. 2), co-secreted with insulin by pancreatic β cells (listed as Homo sapiens)	prevented	blocked	prevented	–	–	–
NCCO [ethanolamine]	prevented	–	prevented	–	–	–
CC(=O)OCOC(=O)CN(CC(=O)OCOC(C)=O)c1ccccc1OCCOc1ccccc1N(CC(=O)OCOC(C)=O)CC(=O)OCOC(C)=O [BAPTA-AM]	–	–	–	inhibited	significantly inhibited	inhibited
CC(=O)N[C@@H](CS)C(=O)O [NAC, N-acetyl cysteine]	–	–	–	–	–	inhibited
